Data published in patent EP3290412A1, “HIV-1 NUCLEOCAPSID INHIBITORS” (Università degli Studi di Siena, priority 2016, dated 2018).
pIC50: −log10 of the molar value. Read-outs that look alike come from different tables or passages of the source.

Assays:
NC(11-55) = NC(11-55) (Human immunodeficiency virus type 1, UniProt P12493); experiment: NC inhibition assay (NC-induced cTAR DNA destabilization, fluorescence); format: biochemical, HIV-1; conditions: for inhibition at 100 µM: single point screening, positive = >25% inhibition at 100µM
Procedure, shortened: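 Doubly labelled cTAR (0.1 µM, Alexa488/Dabcyl) pre-complexed with 1 µM Zn-loaded NC(11-55) for 15 min, then compound added for a further 15 min; run at 20 °C in Tris-HCl pH 7.5, 30 mM NaCl, 0.2 mM MgCl2. Fluorescence read at ex 480/em 520 nm. IC50 taken from dose-response fit of % inhibition of NC-induced fluorescence increase.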

[1] = biological target: T1, full length (1-55) HIV-1 NCp7 (Human immunodeficiency virus type 1 group M subtype B, UniProt P12493); experiment: Electromobility Shift Assay (EMSA), competition for ssDNA binding; conditions: NCp7 300 nM, M13mp18 ssDNA; positive = >25% inhibition at 100µM
T1 construct: recombinant full length (1-55) HIV-1 NCp7 proteins; made in house
Procedure, shortened: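 Recombinant NL4-3 NCp7 (300 nM in the pre-mix) was combined with compound in 20 mM Tris-HCl pH 7.4, 2 mM MgCl2, 100 mM NaCl, 1 mM DTT, then M13mp18 ssDNA was added for 25 min at 37 °C. Complexes were run on 1% agarose/0.5x TBE and stained with SybrGold. IC50 is the concentration at which bound ssDNA migrated 50% of the bound–unbound distance (triplicate).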

[2] = tested on: HIV-1 reference strain NL4-3; experiment: MonoCycle assay (TZM-bl cells); format: cell-based; conditions: for IC50: Human immunodeficiency virus 1, NL43, TZM-bl, 48 h, read-out: Mono Cycle IC50 nM; for pIC50: Human immunodeficiency virus 1, NL43, TZM-bl cells, NL4-3, 48 hours, read-out: Mono Cycle IC50
Protocol: MonoCycle assay is a cell based assay allowing the evaluation of antiviral activity of HIV-1 inhibitors targeting the early steps of HIV-1 life cycle such as entry, uncoating of viral particles, reverse transcription and integration. The assay consists in the infection of TZM-bl cells (20,000/well) with the HIV-1 reference strain NL4-3 in presence of serial five-fold dilutions of the investigational inhibitors. After 48 hours, cells were lysed adding 40 µl of Glo Lysis Buffer (Promega) to each well for 5 minutes, then 40 µl of Brighy-Glo Luciferase Reagent (Promega) were added to each well for relative luminescence units (RLU) counting using Glo-Max Multi Detection System (Promega). RLU values from each well were elaborated using the GraphPad v5.0 software to calculate the IC50 of each compound.

`O=C(NCC1CCCCC1)c1nc(-c2ccccn2)nc(O)c1O` [Compound 1, N-(cyclohexylmethyl)-5,6-dihydroxy-2-(pyridin-2-yl)pyrimidine-4-carboxamide] was tested, and the pIC50 (NC(11-55)) was 3.78, the inhibition at 100 µM (NC(11-55)) was greater than 25% and the EMSA screening results [1] was “Positive (A compound showing >25% inhibition when tested at 100µM concentration is considered as "positive")”. It also gave an IC50 [2] greater than 50000 nM.
In the case of `O=C(OCC1CCCCC1)c1nc(-c2ccccn2)nc(O)c1O` [Compound 2, cyclohexylmethyl 5,6-dihydroxy-2-(pyridin-2-yl)pyrimidine-4-carboxylate], the pIC50 (NC(11-55)) was 4.13, the inhibition at 100 µM (NC(11-55)) was greater than 25% and the EMSA screening results [1] was “Negative”. It also gave an IC50 [2] greater than 50000 nM.
In the case of `O=C(NCC1CC1)c1nc(-c2ccccn2)nc(O)c1O` [Compound 3, N-(cyclopropylmethyl)-5,6-dihydroxy-2-(pyridin-2-yl)pyrimidine-4-carboxamide], the pIC50 (NC(11-55)) was 3.41, the inhibition at 100 µM (NC(11-55)) was greater than 25% and the EMSA screening results [1] was “Negative”. For the same compound, the IC50 [2] was 27400 nM.
`O=C(NC1CCCCC1)c1nc(-c2ccccn2)nc(O)c1O` [Compound 4, N-cyclohexyl-5,6-dihydroxy-2-(pyridin-2-yl)pyrimidine-4-carboxamide] was tested, and the pIC50 (NC(11-55)) was 3.49, the inhibition at 100 µM (NC(11-55)) was greater than 25% and the EMSA screening results [1] was “Negative”. The IC50 [2] was greater than 50000 nM.
In the case of `C[C@@H](NC(=O)c1nc(-c2ccccn2)nc(O)c1O)C1CCCCC1` [Compound 5, (R)-N-(1-cyclohexylethyl)-5,6-dihydroxy-2-(pyridin-2-yl)pyrimidine-4-carboxamide], the pIC50 (NC(11-55)) was 4.37, the inhibition at 100 µM (NC(11-55)) was greater than 25% and the EMSA screening results [1] was “Positive (A compound showing >25% inhibition when tested at 100µM concentration is considered as "positive")”. For the same compound, the IC50 [2] was 2490 nM.
With `O=C(NCCC1CCCCC1)c1nc(-c2ccccn2)nc(O)c1O` [Compound 6, N-(2-cyclohexylethyl)-5,6-dihydroxy-2-(pyridin-2-yl)pyrimidine-4-carboxamide] the pIC50 (NC(11-55)) was 4.43, the inhibition at 100 µM (NC(11-55)) was greater than 25% and the EMSA screening results [1] was “Positive (A compound showing >25% inhibition when tested at 100µM concentration is considered as "positive")”. The IC50 [2] was 4300 nM.
For `CN1CCCC(CNC(=O)c2nc(-c3ccccn3)nc(O)c2O)C1` (stereo not drawn) [Compound 7, 5,6-dihydroxy-N-((1-methylpiperidin-3 - yl)methyl)-2-(pyridin-2-yl)pyrimidine-4-carboxamide], the pIC50 (NC(11-55)) was 3.47, the inhibition at 100 µM (NC(11-55)) was greater than 25% and the EMSA screening results [1] was “Positive (A compound showing >25% inhibition when tested at 100µM concentration is considered as "positive")”. The IC50 [2] was greater than 50000 nM.
For `O=C(NCCCC1CCCCC1)c1nc(-c2ccccn2)nc(O)c1O` [Compound 8, N-(3-cyclohexylpropyl)-5,6-dihydroxy-2-(pyridin-2-yl)pyrimidine-4-carboxamide], the pIC50 (NC(11-55)) was 4.56, the inhibition at 100 µM (NC(11-55)) was greater than 25% and the EMSA screening results [1] was “Positive (A compound showing >25% inhibition when tested at 100µM concentration is considered as "positive")”. For the same compound, the IC50 [2] was 4540 nM.
With `Cc1cccnc1-c1nc(O)c(O)c(C(=O)OCC2CCCCC2)n1` [Compound 10, cyclohexylmethyl 5,6-dihydroxy-2-(3-methylpyridin-2-yl)pyrimidine-4-carboxylate] the pIC50 (NC(11-55)) was 4.26, the inhibition at 100 µM (NC(11-55)) was greater than 25% and the EMSA screening results [1] was “Negative”. For the same compound, the IC50 [2] was greater than 50000 nM.
With `Cc1cccnc1-c1nc(O)c(O)c(C(=O)NCC2CCCCC2)n1` [Compound 11, N-(cyclohexylmethyl)-5,6-dihydroxy-2-(3-methylpyridin-2-yl)pyrimidine-4-carboxamide] the pIC50 (NC(11-55)) was 4.84, the inhibition at 100 µM (NC(11-55)) was greater than 25% and the EMSA screening results [1] was “Negative”. It also gave an IC50 [2] of 50000 nM.
In the case of `O=C(OCCC1CCCCC1)c1nc(-c2ccccn2)nc(O)c1O` [Compound 12, 2-cyclohexylethyl 5,6-dihydroxy-2-(pyridin-2-yl)pyrimidine-4-carboxylate], the pIC50 (NC(11-55)) was 4.24, the inhibition at 100 µM (NC(11-55)) was greater than 25% and the EMSA screening results [1] was “Negative”. It also gave an IC50 [2] greater than 50000 nM.
In the case of `O=C(OCCCC1CCCCC1)c1nc(-c2ccccn2)nc(O)c1O` [Compound 14, 3-cyclohexylpropyl 5,6-dihydroxy-2-(pyridin-2-yl)pyrimidine-4-carboxylate], the pIC50 (NC(11-55)) was 4.56, the inhibition at 100 µM (NC(11-55)) was greater than 25% and the EMSA screening results [1] was “Negative”. It also gave an IC50 [2] greater than 50000 nM.
In the case of `O=C(OCC1CCCCC1)c1nc(-c2ncccc2Cl)nc(O)c1O` [Compound 15, cyclohexylmethyl 2-(3-chloropyridin-2-yl)-5,6-dihydroxypyrimidine-4-carboxylate], the inhibition at 100 µM (NC(11-55)) was greater than 25%, the EMSA screening results [1] was “Positive (A compound showing >25% inhibition when tested at 100µM concentration is considered as "positive")” and the pIC50 [2] was less than 4.30.
In the case of `O=C(NCC1CCCCC1)c1nc(-c2ncccc2Cl)nc(O)c1O` [Compound 16, 2-(3-chloropyridin-2-yl)-N-(cyclohexylmethyl)-5,6-dihydroxypyrimidine-4-carboxamide], the inhibition at 100 µM (NC(11-55)) was greater than 25%, the EMSA screening results [1] was “Positive (A compound showing >25% inhibition when tested at 100µM concentration is considered as "positive")” and the pIC50 [2] was 4.29.
`CC(OC(=O)c1nc(-c2ccccn2)nc(O)c1O)C1CCCCC1` (stereo not drawn) [Compound 17, 1-cyclohexylethyl 5,6-dihydroxy-2-(pyridin-2-yl)pyrimidine-4-carboxylate] was tested, and the pIC50 (NC(11-55)) was 4.05, the inhibition at 100 µM (NC(11-55)) was greater than 25% and the EMSA screening results [1] was “Negative”. The IC50 [2] was greater than 50000 nM.
With `Cc1cccc(-c2nc(O)c(O)c(C(=O)N[C@H](C)C3CCCCC3)n2)n1` [Compound 18, (R)-N-(1-cyclohexylethyl)-5,6-dihydroxy-2-(6-methylpyridin-2-yl)pyrimidine-4-carboxamide] the pIC50 (NC(11-55)) was 4.70, the inhibition at 100 µM (NC(11-55)) was greater than 25% and the EMSA screening results [1] was “Positive (A compound showing >25% inhibition when tested at 100µM concentration is considered as "positive")”. For the same compound, the IC50 [2] was 37300 nM.
In the case of `Cc1ccnc(-c2nc(O)c(O)c(C(=O)N[C@H](C)C3CCCCC3)n2)c1` [Compound 19, (R)-N-(1-cyclohexylethyl)-5,6-dihydroxy-2-(4-methylpyridin-2-yl)pyrimidine-4-carboxamide], the pIC50 (NC(11-55)) was 5.07, the inhibition at 100 µM (NC(11-55)) was greater than 25% and the EMSA screening results [1] was “Positive (A compound showing >25% inhibition when tested at 100µM concentration is considered as "positive")”. The IC50 [2] was 15300 nM.
In the case of `O=C(NCC1CCC1)c1nc(-c2cc3ccccc3cn2)nc(O)c1O` [Compound 47, N-(cyclobutylmethyl)-5,6-dihydroxy-2-(isoquinolin-3-yl)pyrimidine-4-carboxamide], the pIC50 (NC(11-55)) was 5.19, the inhibition at 100 µM (NC(11-55)) was greater than 25% and the IC50 [2] was 8930 nM.
Compound `C[C@@H](NC(=O)c1nc(-c2cc(N)ccn2)nc(O)c1O)C1CCCCC1` [Compound 48, (R)-2-(4-aminopyridin-2-yl)-N-(1-cyclohexylethyl)-5,6-dihydroxypyrimidine-4-carboxamide] has a pIC50 (NC(11-55)) of 5.40, an inhibition at 100 µM (NC(11-55)) greater than 25% and an IC50 [2] of 9870 nM.
Compound `C[C@@H](NC(=O)c1nc(-c2ccc(Cl)cn2)nc(O)c1O)C1CCCCC1` [Compound 49, (R)-2-(5-chloropyridin-2-yl)-N-(1-cyclohexylethyl)-5,6-dihydroxypyrimidine-4-carboxamide] has a pIC50 (NC(11-55)) of 5.05, an inhibition at 100 µM (NC(11-55)) greater than 25% and an IC50 [2] of 10900 nM.
